Measurements from patent US20260285816A1, “Piperazinyl-Modified Quinazolinyl-Aryl Urea Derivative, And Preparation Method And Use Thereof” (Guangxi Normal University, priority 2025, published 2026).
Where two headings read alike, the source gives them in different places.

Assays:
Type in all cases: cell-based, human
[1] = tested on: J82 cells; assay: CCK-8 anti-proliferative assay, J82; conditions: Homo sapiens, J82, co-incubated 48 h, read-out: Anti-proliferative activity (IC50 ± standard deviation) J82
Summary of the method: (§1)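 Cells seeded at 5,000/well and grown at 37° C., 5% CO2 to 70% confluency, then treated with compound at final 1, 2, 4, 6, 8, 12, 16, 24 and 30 μM in triplicate.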

[2] = tested on: UM-UC-3 cells; assay: CCK-8 anti-proliferative assay, UM-UC-3; conditions: Homo sapiens, UMUC3, co-incubated 48 h, read-out: Anti-proliferative activity (IC50 ± standard deviation) UM-UC-3
Summary of the method: as §1

[3] = tested on: T24 cells; assay: CCK-8 anti-proliferative assay, T24; conditions: Homo sapiens, T-24, co-incubated 48 h, read-out: Anti-proliferative activity (IC50 ± standard deviation) T24
Summary of the method: (§2)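 Cells seeded at 5,000/well were grown at 37° C. under 5% CO2 to 70% confluency, then exposed in triplicate to 1–30 μM compound (1, 2, 4, 6, 8, 12, 16, 24, 30 μM) for designated durations. CCK-8 was added for 1–4 h, OD read at 450 nm, and IC50 derived from inhibition versus control.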

[4] = tested on: 5637 cells; assay: CCK-8 anti-proliferative assay, 5637; conditions: Homo sapiens, co-incubated 48 h, read-out: Anti-proliferative activity (IC50 ± standard deviation) 5637
Summary of the method: as §1

[5] = tested on: 143B cells; assay: CCK-8 anti-proliferative assay, 143B; conditions: Homo sapiens, 143B, co-incubated 48 h, read-out: Anti-proliferative activity (IC50 ± standard deviation) 143B
Summary of the method: as §2

[6] = tested on: MG-63 cells; assay: CCK-8 anti-proliferative assay, MG-63; conditions: Homo sapiens, MG-63, co-incubated 48 h, read-out: Anti-proliferative activity (IC50 ± standard deviation) MG-63
Summary of the method: as §2

[7] = tested on: BxPC-3 cells; assay: CCK-8 anti-proliferative assay, BxPC-3; conditions: Homo sapiens, BXPC-3, co-incubated 48 h, read-out: Anti-proliferative activity (IC50 ± standard deviation) BxPC-3
Summary of the method: as §2

[8] = tested on: PANC-1 cells; assay: CCK-8 anti-proliferative assay, PANC-1; conditions: Homo sapiens, PANC-1, co-incubated 48 h, read-out: Anti-proliferative activity (IC50 ± standard deviation) PANC-1
Summary of the method: as §2

[9] = tested on: HeLa cells; assay: CCK-8 anti-proliferative assay, HeLa; conditions: Homo sapiens, HeLa, co-incubated 48 h, read-out: Anti-proliferative activity (IC50 ± standard deviation) HeLa
Summary of the method: as §1

[10] = tested on: MCF-7 cells; assay: CCK-8 anti-proliferative assay, MCF-7; conditions: Homo sapiens, MCF7, co-incubated 48 h, read-out: Anti-proliferative activity (IC50 ± standard deviation) MCF-7
Summary of the method: as §1

[11] = tested on: A549 cells; assay: CCK-8 anti-proliferative assay, A549; conditions: Homo sapiens, A549, co-incubated 48 h, read-out: Anti-proliferative activity (IC50 ± standard deviation) A549
Summary of the method: as §1

[12] = tested on: Hep G2 cells; assay: CCK-8 anti-proliferative assay, Hep G2; conditions: Homo sapiens, HepG2, co-incubated 48 h, read-out: Anti-proliferative activity (IC50 ± standard deviation) Hep G2
Summary of the method: as §2

[13] = tested on: SK-OV-3 cells; assay: CCK-8 anti-proliferative assay, SK-OV-3; conditions: Homo sapiens, SK-OV-3, co-incubated 48 h, read-out: Anti-proliferative activity (IC50 ± standard deviation) SK-OV-3
Summary of the method: as §1

[14] = tested on: immortalized ureteral epithelial cells (SV-HUC-1); assay: CCK-8 anti-proliferative assay, normal cells SV-HUC-1; conditions: Homo sapiens, SV-HUC1, normal cells, co-incubated 48 h, read-out: Anti-proliferative activity (IC50 ± standard deviation) SV-HUC-1
Summary of the method: as §1

[15] = tested on: embryonic lung fibroblasts (WI-38); assay: CCK-8 anti-proliferative assay, normal cells WI-38; conditions: Homo sapiens, read-out: Anti-proliferative activity (IC50 ± standard deviation) WI-38
Summary of the method: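 Absorbance at 450 nm after CCK-8 labelling (1–4 h, varying by cell line) gave inhibition relative to untreated control, from which IC50 values were derived. Compounds were applied at final concentrations of 1 to 30 μM in triplicate wells once cultures reached 70% confluency, with co-incubation for designated durations.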

[16] = WI-38, Table 13, co-incubated 48 h
[17] = WI-38, Table 9, co-incubated 48 h

SMILES	IC50 ([3]; Table 10)	IC50 ([7]; Table 11)	IC50 ([8]; Table 11)	IC50 ([9]; Table 12)	IC50 ([10]; Table 12)	IC50 ([11]; Table 13)	IC50 ([13]; Table 12)	IC50 ([3]; Table 6)	IC50 ([1]; Table 10)	IC50 ([2]; Table 10)	IC50 ([4]; Table 10)	IC50 ([5]; Table 11)	IC50 ([6]; Table 11)	IC50 ([12]; Table 12)	IC50 ([14]; Table 13)	IC50 [15, 16]	IC50 ([1]; Table 6)	IC50 ([2]; Table 6)	IC50 ([4]; Table 6)	IC50 ([5]; Table 7)	also measured
COc1cc2ncnc(NCc3cccc(NC(=O)Nc4cc(C(F)(F)F)cc(C(F)(F)F)c4)c3)c2cc1OCCCCCCN1CCN(CCN2CCOCC2)CC1 [Compound 8-1s, N-(3-(((7-methoxy-6-((6-(4-(2-morpholinoethyl)piperazin-1-yl)hexyl)oxy)quinazolin-4-yl)amino)methyl)phenyl)-N′-(3,5-bis(trifluoromethyl)phenyl)urea]								6.95 ± 0.51 µM									5.63 ± 0.54 µM	6.72 ± 0.53 µM	5.93 ± 0.44 µM	4.95 ± 0.69 µM	IC50 ([6]; Table 7): 7.17 ± 0.52 µM; IC50 ([7]; Table 7): 7.31 ± 0.76 µM; IC50 ([8]; Table 7): 12.7 ± 0.71 µM; IC50 ([9]; Table 8): 6.81 ± 0.45 µM; IC50 ([10]; Table 8): 10.3 ± 0.68 µM; IC50 ([11]; Table 8): 12.6 ± 0.48 µM; IC50 ([12]; Table 8): 4.55 ± 0.47 µM; IC50 ([13]; Table 9): 7.29 ± 0.66 µM; IC50 ([14]; Table 9): 7.31 ± 0.35 µM; IC50 [15, 17]: 7.71 ± 0.54 µM
COc1cc2ncnc(NCc3cccc(NC(=O)Nc4ccc(C)cc4)c3)c2cc1OCCCCCCN1CCC(CN2CCN(c3ccccn3)CC2)CC1 [Compound 8-2d, N-(3-(((7-methoxy-6-((6-(4-((4-(pyridin-2-yl)piperazin-1-yl)methyl)piperidin-1-yl)hexyl)oxy)quinazolin-4-yl)amino)methyl)phenyl)-N′-(4-methylphenyl)urea]	6.62 ± 0.49 µM	9.29 ± 0.73 µM	25.4 ± 2.04 µM	4.79 ± 0.38 µM	7.92 ± 0.51 µM	9.23 ± 0.61 µM	6.79 ± 0.62 µM		13.8 ± 1.33 µM	7.58 ± 0.79 µM	14.3 ± 0.89 µM	6.92 ± 0.39 µM	7.29 ± 0.62 µM	3.82 ± 0.25 µM	7.94 ± 0.44 µM	9.79 ± 0.38 µM					
COc1cc2ncnc(NCc3cccc(NC(=O)NC4CCCCC4)c3)c2cc1OCCCCCCN1CCN(CCN2CCOCC2)CC1 [Compound 8-1v, N-(3-(((7-Methoxy-6-((6-(4-(2-morpholinoethyl)piperazin-1-yl)hexyl)oxy)quinazolin-4-yl)amino)methyl)phenyl)-N′-cyclohexylurea]								15.8 ± 0.89 µM									13.9 ± 0.95 µM	19 ± 0.34 µM	11.2 ± 0.97 µM	22.4 ± 1.63 µM	IC50 ([6]; Table 7): 15.6 ± 0.92 µM; IC50 ([7]; Table 7): 16.8 ± 1.25 µM; IC50 ([8]; Table 7): > 30 µM; IC50 ([9]; Table 8): > 30 µM; IC50 ([10]; Table 8): > 30 µM; IC50 ([11]; Table 8): 16.5 ± 0.77 µM; IC50 ([12]; Table 8): 10.6 ± 0.94 µM; IC50 ([13]; Table 9): > 30 µM; IC50 ([14]; Table 9): > 30 µM; IC50 [15, 17]: 15.4 ± 0.88 µM

Further lines, with some results ahead:

IC50 ([3]; Table 10)	IC50 ([7]; Table 11)	IC50 ([8]; Table 11)	IC50 ([9]; Table 12)	IC50 ([10]; Table 12)	IC50 ([11]; Table 13)	IC50 ([13]; Table 12)	IC50 ([3]; Table 6)	SMILES	IC50 ([1]; Table 10)	IC50 ([2]; Table 10)	IC50 ([4]; Table 10)	IC50 ([5]; Table 11)	IC50 ([6]; Table 11)	IC50 ([12]; Table 12)	IC50 ([14]; Table 13)	IC50 [15, 16]	IC50 ([1]; Table 6)	IC50 ([2]; Table 6)	IC50 ([4]; Table 6)	IC50 ([5]; Table 7)	also measured
5.92 ± 0.47 µM	8.97 ± 0.89 µM	9.42 ± 0.83 µM	4.97 ± 0.48 µM	6.21 ± 0.63 µM	7.63 ± 0.87 µM	6.69 ± 0.49 µM		COc1cc2ncnc(NCc3cccc(NC(=O)Nc4ccc(C(C)C)cc4)c3)c2cc1OCCCCCCN1CCC(CN2CCN(c3ccccn3)CC2)CC1 [Compound 8-2i, N-(3-(((7-methoxy-6-((6-(4-((4-(pyridin-2-yl)piperazin-1-yl)methyl)piperidin-1-yl)hexyl)oxy)quinazolin-4-yl)amino)methyl)phenyl)-N′-(4-isopropylphenyl)urea]	5.88 ± 0.35 µM	6.32 ± 0.44 µM	4.24 ± 0.32 µM	6.38 ± 0.33 µM	4.79 ± 0.46 µM	3.85 ± 0.29 µM	10.8 ± 0.74 µM	10.5 ± 0.36 µM					
5.34 ± 0.27 µM	7.11 ± 0.79 µM	15.9 ± 0.94 µM	5.51 ± 0.49 µM	6.68 ± 0.79 µM	14.2 ± 1.31 µM	6.32 ± 0.56 µM		COc1ccccc1NC(=O)Nc1cccc(CNc2ncnc3cc(OC)c(OCCCCCCN4CCC(CN5CCN(c6ccccn6)CC5)CC4)cc23)c1 [Compound 8-2k, N-(3-(((7-methoxy-6-((6-(4-((4-(pyridin-2-yl)piperazin-1-yl)methyl)piperidin-1-yl)hexyl)oxy)quinazolin-4-yl)amino)methyl)phenyl)-N′-(2-methoxyphenyl)urea]	5.68 ± 0.42 µM	7.19 ± 0.52 µM	5.63 ± 0.38 µM	6.08 ± 0.37 µM	6.38 ± 0.43 µM	4.99 ± 0.47 µM	13 ± 0.88 µM	11.2 ± 0.65 µM					
